Experimental data taken from patent US20080090780A1, “Storage stable azadirachtin pesticide formulation” (PBI/GORDON CORPORATION, priority 2006, published 2008).
Where two headings read alike, the source gives them in different places.

How the values were obtained:
[1] = type: physicochemical; conditions: for loss of AZA A: AZA alone without incorporation of a PYR (Table 2); for % Decomposition of AZA A and PYR: JeffSol AG-1555, Triton X-100
Description: This invention relates to a storage stable, efficacious pesticide formulation dilutable by the user that contains azadirachtin made up of azadirachtin A and azadirachtin B, a pyrethrin or pyrethroid, a solvent, and an emulsifier. The pyrethrin or pyrethroid complexes with and minimizes decomposition of the azadirachtin A. An amount of the pyrethrin or pyrethroid is incorporated to form a complex with the azadirachtin A on opposite sides of the molecular structure thereof. […] Preferably, an aprotic heterocyclic or mono, di-, or polycyclic aromatic solvent is provided having C2-C25 carbon atoms and that is compatible with the azadirachtin A and pyrethrin or pyrethroid. In addition, a non-ionic emulsifier is preferably included in the formulation.
When a PYR was added to AZA A, the decomposition pathway of AZA A was stabilized, as shown by Table 2.
FIG. 1 is a plot of the percent AZA A decomposition on the Y-axis, as compared with the mole ratio of bifenthrin/AZA A on the X-axis, under an accelerated aging test of 30 days at 40° C. The loss of AZA A decreased as the mole ratio of PYR to AZA A approached 2:1, where the PYR was present in an amount to form a complex with the AZA A on opposite sides of the molecular structure thereof and sufficient to prevent further decomposition of the AZA A.
FIG. 3 compares the percent of AZA A decomposition on the Y-axis with the mole ratio of zeta cypermethrin to AZA A on the X-axis, also under an accelerated aging test of 30 days at 40° C.

[2] = system: potato aphids; experiment: Greenhouse tests on live potato aphids on tomatoes; type: in vivo; conditions: Azadirachtin 0.0008 lbs/gal, bifenthrin 0.005 lbs/gal, combination as labelled
[3] = Azadirachtin stability tests in seed oil carrier (soybean oil / Tween 85 containing 5% water); type: physicochemical; conditions: Soybean Oil (50% Seed Oil/50% Tween 85 containing 5% water), 40° C., 32 Days
Description: AZA plus PYRs have been studied in conventional oil systems, such as soybean oil, canola oil, methylated soybean oil, epoxidized soybean oil, rape seed oil, and olive oil, all of which contained an emulsifier having as much as 5% of water. None of these oils in combination with the PYR stabilized the AZA A in the formulation, largely because of the presence of moisture in the emulsifier. When AZA is combined with PYR and the types of solvents and emulsifiers disclosed herein, the AZA A of the formulation is stabilized. Table 9 records test results of AZA+soybean oil as compared with AZA+PYR+soybean oil.

[4] = Azadirachtin A/B 0.50% + Bifenthrin 2.01%, 1 Month/40° C.
[5] = Azadirachtin A/B 0.50% + Bifenthrin 2.01%, 1 Month/Ambient
[6] = Azadirachtin A/B 1.50% + 1.50% second active, 1 Month/40° C.
[7] = Azadirachtin A/B 1.50% + 1.50% second active, 1 Month/Ambient
[8] = Azadirachtin A/B 1.75% + Bifenthrin 1.00%, 1 Month/40° C.
[9] = Azadirachtin A/B 2.00% + Bifenthrin 0.50%, 1 Month/40° C.

Row | Compound | loss of AZA A (percent of AZA A decomposition) ([1]; 1:1 mole ratio zeta cypermethrin to AZA A, accelerated aging test of 30 days at 40° C., FIG. 3) | loss of AZA A [1] | % Decomposition of AZA A and PYR [1, 4] | % Decomposition of AZA A and PYR [1, 5] | % Decomposition of AZA A and PYR [1, 6] | % Decomposition of AZA A and PYR [1, 7] | % Decomposition of AZA A and PYR [1, 8] | % Decomposition of AZA A and PYR [1, 9] | % Decomposition of AZA A and PYR ([1]; Bifenthrin only 3.01% AI, 1 Month/40° C.) | Live potato aphids on tomatoes (aphid mean numbers) ([2]; 0 DAT1) | Live potato aphids on tomatoes (aphid mean numbers) ([2]; 0 DAT2) | Live potato aphids on tomatoes (aphid mean numbers) ([2]; 3 DAT1) | Live potato aphids on tomatoes (aphid mean numbers) ([2]; 3 DAT2) | Live potato aphids on tomatoes (aphid mean numbers) ([2]; 7 DAT1) | Live potato aphids on tomatoes (aphid mean numbers) ([2]; 7 DAT2) | % Decomposition of AZA A and PYR ([1]; Azadirachtin A/B only 3.01% AI, 1 Month/40° C.) | AZA A Stability in Formulation ([3]; AZA A/B 0.50% + Bifenthrin 2.00%) | AZA A Stability in Formulation ([3]; AZA A/B 0.50% + Permethrin 2.00%) | AZA A Stability in Formulation ([3]; AZA A/B 0.50% + Z-Cypermethrin 2.00%) | AZA A Stability in Formulation ([3]; AZA A/B 3.00% alone)
1 | C/C=C(\C)C(=O)O[C@H]1C[C@@H](OC(C)=O)[C@@]2(C(=O)OC)CO[C@@H]3C2[C@]12CO[C@@](O)(C(=O)OC)[C@H]2[C@](C)(C12OC1(C)C1C[C@H]2O[C@@H]2OC=CC12O)[C@@H]3O (stereo partly drawn) [AZA A, azadirachtin A] | 1% | more than 12% | – | – | – | – | – | – | – | – | – | – | – | – | – | – | – | – | – | –
2 | Cc1c(COC(=O)[C@@H]2[C@H](/C=C(\Cl)C(F)(F)F)C2(C)C)cccc1-c1ccccc1 (racemic) [Bifenthrin, bifenthrin] | – | – | −2.67% | −2.42% | −2.96% | −2.82% | −2.21% | −0.82% | −2.54% | 357 a | 162 b | 131 b | 89 b | 179 b | 64 b | – | – | – | – | –
3 | azadirachtin [Azadirachtin A/B] | – | 12.64% | −4.30% | −1.03% | −4.20% | −0.14% | −7.37% | −7.61% | – | 338 a | 11 c | 120 b | 3 c | 18 c | 1 c | −12.64% | −54.27% | −52.62% | −48.25% | −27.02%
